Laboratory results as given in patent publication US10266490B2, “Radioprotector compounds” (GEORGETOWN UNIVERSITY, priority 2012, dated 2019).

Key:
[1] = tested on: cultured cells (e.g., fibroblasts and epithelial cells); test: Radiation protection of cultured cells (clonogenic survival, various cell types); format: cell-based; details: for radiation protection relative to DIM: cultured cells
Source text: DIM, a metabolite of indole-3-carbinol and a proposed […], is a potent radiation protector in cultured cells and in rodents (mice and rats). The preparation of DIM that was used for most experiments was a microencapsulated form of DIM produced by BioResponse Nutrients (Boulder, Colo.). This microencapsulated form of DIM is designed with specific excipients (e.g., alpha-tocopherol succinate and phosphatidylcholine) to provide enhanced absorption and, therefore, enhanced bioavailability.
(§1) Following the indicated treatment(s), subconfluent proliferating cells were irradiated with different doses of ^137Cs γ-rays, harvested using trypsin, and plated at different densities in the absence or presence of DIM (as indicated) for colony formation (clonogenic survival) assays, as described in Zhang et al., Radiat Res, 161:667-674 (2004). Values of surviving fraction are means±SEMs of triplicate plates.
Novel compounds were synthesized, which we have tested for their ability to protect cells against radiation in cultured cells. […] None of these compounds are predicted to be free-radical scavengers or to be genotoxic. For reference, clonogenic radiation survival curves of cultured human mammary epithelial cells treated without or with DIM are shown in FIG. 6, panels A and B. In these studies, human mammary epithelial cells at about 70-80% of confluency were treated with DIM (0.3 μM) or vehicle ([…]) for 24 hours. The cells were then irradiated using different doses of ^137Cs gamma rays, harvested, plated at different densities in the presence of DIM (0.3 μM) or vehicle, respectively, incubated for 14 days, and then counted for colony formation. In FIG. 6, panels A and B, the clonogenic survival curves are shown using non-tumorigenic human mammary epithelial cell lines Hs5788st (panel B) or 184A1 (panel A). All cell survival values are means±SEMs of three replicate dishes.

[2] = tested on: non-homologous end joining; test: DNA strand rejoining assay (linearized plasmid pEGFP-1, nuclear lysates); format: cell-based, human; details: 184A1 cells; inhibitor 10 μM
Experimental: FIGS. 11A and 11B show subconfluent proliferating 184A1 (FIG. 11A) or Hs578Bst (FIG. 11B) cells pre-treated±DIM (0.3 μM×24 hr); exposed to radiation (3-Gy) on ice; and subjected to neutral comet assays at different times post-irradiation. Values of % tail DNA are means±ranges of two determinations. […] At 24-hr after irradiation, cells were analyzed by flow cytometry for apoptosis, by measuring membrane redistribution of phosphatidylserine. The percentage of early and late apoptotic cells for non-irradiated control cells were: vehicle treated, 1.25% and 1.34%, and DIM-treated, 0.54% and 1.02%, respectively.
After the indicated cell treatment(s), nuclear lysates were prepared and aliquots of lysate (50 or 75 μg of nuclear protein) were tested for their ability to rejoin a plasmid (pEGFP-1, Clontech) that had been linearized using restriction enzyme SmaI. The reaction products were detected by Southern blotting, which was performed with a digoxigenin-labeled enhanced green fluorescent protein RNA probe. The percent rejoined plasmids […] was determined by densitometric quantification of the bands corresponding to rejoined and unrejoined plasmid.
Since ATM is known to have a major role in the repair of radiation-induced double-strand breaks (DSBs) of DNA, it was tested whether DIM could stimulate the repair of DSBs. The neutral comet assay is an electrophoretic method to measure DNA damage that reflects DSBs. The percent of tail DNA after irradiation reflects the number of DSBs. […] A DNA strand-rejoining assay based on the ability of cell nuclei to rejoin a linearized plasmid (pEGFP-1) was also performed, detected by Southern blotting. This assay reflects the process of non-homologous end joining (NEHJ).

ATM = test: Western blot of ATM signaling, 184A1 cells; format: cell-based, human; details: KU55933 10 μM
Experimental: FIG. 7A contains Western blots of subconfluent proliferating 184A1 human mammary epithelial cells exposed to DIM (0.3 μM) for different time intervals. Phosphorylated or total levels of ATM and of several different ATM substrate proteins were determined, as indicated. As a negative control, cells were treated with a selective inhibitor of ATM kinase activity (KU55933). FIG. 7B contains Western blots of 184A1 cells either untreated or treated with radiation (2-Gy of γ-radiation) and/or DIM (0.3 μM).
FIG. 8 contains a Western blot of subconfluent proliferating 184A1 human mammary epithelial cells exposed to DIM (0.3 μM) for different time intervals. Phosphorylated or total levels of ATM and of different DNA damage-response proteins were determined, as indicated.
Western blotting was performed. The primary antibodies were as follows: rabbit polyclonal anti-BRCA1 (sc-642, Santa Cruz); mouse monoclonal α-actin (sc-1616, Santa Cruz); anti-phospho-BRCA1 (S1387) [AB3257, Millipore (Billerica, Mass.)]; mouse monoclonal anti-ATM (sc-73615, Santa Cruz,); anti-phospho-ATM (S1981); anti-CHK2 (05-649, mouse monoclonal, Millipore); anti-phosph-CHK2 (T68) (ab32055, rabbit monoclonal, Abcam, Cambridge, Mass.); anti-p53 (ab2433, rabbit polyclonal, Abcam), and rabbit polyclonal anti-phospho-p53 (S15) (ab38497, Abcam).

[3] = tested on: Hs578Bst human mammary epithelial cells; test: Clonogenic survival after radiation, Hs578Bst cells; format: cell-based; details: single dose of radiation (8-Gy); different concentrations
Source text: as §1
It was next tested whether DIM could protect cultured cells against radiation using clonogenic survival (colony formation) assays. Cells were exposed to DIM (0.3 μM) for 24-hr, irradiated, and harvested for colony formation assays. […]
Novel compounds were synthesized, which we have tested for their ability to protect cells against radiation in cultured cells. […] The cells were then irradiated using different doses of ^137Cs gamma rays, harvested, plated at different densities in the presence of DIM (0.3 μM) or vehicle, respectively, incubated for 14 days, and then counted for colony formation. […]
Cells at about 70-80% confluency were treated with vehicle (DMSO) or with the indicated compound (1 μM) for 24 hours, irradiated using different doses of ^137Cs gamma rays, harvested, plated at different densities in the presence of the compound (0.3 μM) or vehicle, respectively, incubated for 14 days, and then counted for colony formation. […]

SMILES: c1ccc2c(Cc3c[nH]c4ccccc34)c[nH]c2c1 [crystalline DIM, 3,3′-diindolylmethane]
- radioprotection of cultured cells ([1]; ionizing radiation, clonogenic survival assays): work very well as radioprotectors

SMILES: COc1ccc2c(c1)[nH]c1c(C)c(OS(=O)(=O)c3cccc4c(N(C)C)cccc34)ccc12 [KED-4-69]
- radiation protection relative to DIM [1]: strong levels of radiation protection similar to, slightly greater than, or slightly less than DIM

SMILES: O=c1cc(-c2cccc3c2Sc2ccccc2S3)oc(N2CCOCC2)c1 [KU55933]
- effect on DIM-induced strand-rejoining [2]: blocked DIM-induced strand-rejoining
- effect on DIM-induced phosphorylations of ATM, BRCA1 and CHK2 (ATM): blocked

SMILES: CCOC(=O)C(O)(c1c(C)n(C)c2ccccc12)C(F)(F)F (stereo not drawn) [THW-5-85]
- radiation protection relative to DIM [1]: strong levels of radiation protection similar to, slightly greater than, or slightly less than DIM
- potency of survival enhancement relative to DIM [3]: at least as potent as DIM
